Experimental data: ChEMBL document CHEMBL1135843, “A library construction of 2,5-disubstituted pyrrole compounds by using solid/solution-phase syntheses” (Bioorg Med Chem Lett, 2002)
pIC50: −log10 of the molar value.

Assay: Inhibition of LPS-induced mouse B-lymphocyte proliferation in relation to IC50 of all-trans retinoic acid.
Assay type: functional

SMILES	Relative IC50
CCc1ccc(OC)c2cc(-c3ccc(-c4ccc(C(=O)O)o4)[nH]3)oc12	>1000
O=C(O)c1ccc2cc(-c3ccc(-c4cc5c(Cl)ccc(Cl)c5s4)[nH]3)ccc2c1	>1000
O=C(O)c1ccc(-c2ccc(-c3cc4cc(Cl)ccc4o3)[nH]2)s1	>1000
CCCc1ccc(OC)c2cc(-c3ccc(-c4ccc(C(=O)O)o4)[nH]3)oc12	>1000
Cc1cc(-c2ccc(-c3cc4cc(Cl)cc(Cl)c4o3)[nH]2)c(C)cc1C(=O)O	>1000
O=C(O)c1ccc(-c2ccc(-c3cc4cc(Cl)ccc4o3)[nH]2)c2ccccc12	>1000
O=C(O)c1ccc(-c2ccc(-c3cc4c(Cl)ccc(Cl)c4s3)[nH]2)c2ccccc12	>1000
CCc1ccc(OC)c2cc(-c3ccc(-c4ccc(C(=O)O)s4)[nH]3)oc12	>1000
CCc1ccc(OC)c2cc(-c3ccc(-c4ccc(C(=O)O)c5ccccc45)[nH]3)oc12	>1000
Cc1ccc(Cl)c2sc(-c3ccc(-c4ccc(C(=O)O)c5ccccc45)[nH]3)cc12	>1000
Cc1ccc(Cl)c2oc(-c3ccc(-c4ccc5cc(C(=O)O)ccc5c4)[nH]3)cc12	>1000
CCCc1ccc(OC)c2cc(-c3ccc(-c4cc(C)c(C(=O)O)cc4C)[nH]3)oc12	>1000
CCCc1cccc2cc(-c3ccc(-c4ccc5cc(C(=O)O)ccc5c4)[nH]3)oc12	>1000
CCCc1ccc(OC)c2cc(-c3ccc(-c4ccc(C(=O)O)s4)[nH]3)oc12	>1000
Cc1ccc(C)c2oc(-c3ccc(-c4ccc(C(=O)O)c5ccccc45)[nH]3)cc12	>1000
CCc1ccc(OC)c2cc(-c3ccc(-c4cc(C)c(C(=O)O)cc4C)[nH]3)oc12	>1000

SMILES	Relative IC50
Cc1ccc(C)c2oc(-c3ccc(-c4ccc(C(=O)O)o4)[nH]3)cc12	>1000
O=C(O)c1ccc(-c2ccc(-c3cc4cc(Cl)ccc4o3)[nH]2)o1	>1000
Cc1ccc(C)c2oc(-c3ccc(-c4ccc5cc(C(=O)O)ccc5c4)[nH]3)cc12	>1000
Cc1cc(C)c2oc(-c3ccc(-c4ccc(C(=O)O)c5ccccc45)[nH]3)cc2c1C	>1000
CCCc1cccc2cc(-c3ccc(-c4cc(C)c(C(=O)O)cc4C)[nH]3)oc12	>1000
O=C(O)c1cccc(-c2ccc(-c3cc4cccc(Cl)c4s3)[nH]2)c1	>1000
Cc1cc(-c2ccc(-c3cc4c(C)c(C)cc(C)c4o3)[nH]2)c(C)cc1C(=O)O	>1000
CCCc1ccc(OC)c2cc(-c3ccc(-c4ccc(C(=O)O)c5ccccc45)[nH]3)oc12	>1000
CCCc1ccc(OC)c2cc(-c3ccc(-c4ccc5cc(C(=O)O)ccc5c4)[nH]3)oc12	>1000
CCc1ccc(OC)c2cc(-c3ccc(-c4ccc5cc(C(=O)O)ccc5c4)[nH]3)oc12	>1000
Cc1cc(C)c2oc(-c3ccc(-c4ccc5cc(C(=O)O)ccc5c4)[nH]3)cc2c1C	>1000
CCCc1cccc2cc(-c3ccc(-c4ccc(C(=O)O)c5ccccc45)[nH]3)sc12	>1000
CCCc1cc(OC)cc2cc(-c3ccc(-c4cc(C)c(C(=O)O)cc4C)[nH]3)oc12	>1000
Cc1cc(-c2ccc(-c3cc4cc(Cl)ccc4o3)[nH]2)c(C)cc1C(=O)O	>1000
Cc1cc(-c2ccc(-c3cc4c(C)ccc(C)c4o3)[nH]2)c(C)cc1C(=O)O	>1000
Cc1cc(C)c2oc(-c3ccc(-c4ccc(C(=O)O)o4)[nH]3)cc2c1C	>1000

Assay: Compound was evaluated for its inhibition of LPS-induced mouse B-lymphocyte proliferation. The result is expressed as relative IC50 i.e., IC50 of compound / All Trans Retinoic Acid IC50
Assay type: functional

SMILES	Relative IC50
O=C(O)c1ccc(-c2ccc(-c3cc4c(Cl)ccc(Cl)c4o3)[nH]2)cc1	1.3
Cc1ccc(C)c2oc(-c3ccc(-c4ccc(C(=O)O)cc4)[nH]3)cc12	0.76
CC1=C(/C=C/C(C)=C/C=C/C(C)=C/C(=O)O)C(C)(C)CCC1 [TRETINOIN]	0.65

Assay: Inhibition of LPS-induced mouse B-lymphocyte proliferation. The result is expressed as relative IC50 i.e., IC50 of compound/all-trans retinoic acid IC50.
Assay type: functional

SMILES	Relative IC50
CCCc1cccc2cc(-c3ccc(-c4ccc(C(=O)O)s4)[nH]3)sc12	600
Cc1ccc(C)c2oc(-c3ccc(-c4ccc(C(=O)O)cc4Br)[nH]3)cc12	18
Cc1ccc(C)c2oc(-c3ccc(-c4ccc(C(=O)O)cc4F)[nH]3)cc12	15
Cc1ccc(C)c2oc(-c3ccc(-c4cccc(C(=O)O)c4)[nH]3)cc12	2100
COc1cc(C(=O)O)ccc1-c1ccc(-c2cc3c(Cl)ccc(Cl)c3o2)[nH]1	210
O=C(O)c1ccc(-c2ccc(-c3cc4c(Cl)ccc(Cl)c4o3)[nH]2)c(Cl)c1	240
O=C(O)c1ccc(-c2ccc(-c3cc4c(Cl)ccc(Cl)c4o3)[nH]2)c(Br)c1	45
O=C(O)c1ccc(-c2ccc(-c3cc4ccc5ccccc5c4o3)[nH]2)c(Br)c1	1500
Cc1ccc(C)c2oc(-c3ccc(-c4ccc(C(=O)O)s4)[nH]3)cc12	42
CCc1ccc(OC)c2cc(-c3ccc(-c4ccc(C(=O)O)cc4Br)[nH]3)oc12	140
Cc1cc(C)c2oc(-c3ccc(-c4ccc(C(=O)O)cc4Br)[nH]3)cc2c1C	42
Cc1ccc(Cl)c2sc(-c3ccc(-c4ccc(C(=O)O)s4)[nH]3)cc12	480
Cc1ccc(Cl)c2oc(-c3ccc(-c4ccc(C(=O)O)cc4Br)[nH]3)cc12	16
O=C(O)c1ccc(-c2ccc(-c3cc4cccc(Cl)c4o3)[nH]2)c(Cl)c1	300
O=C(O)c1ccc(-c2ccc(-c3cc4c(Cl)ccc(Cl)c4o3)[nH]2)s1	62
Cc1cc(C)c2oc(-c3ccc(-c4ccc(C(=O)O)s4)[nH]3)cc2c1C	230
O=C(O)c1ccc(-c2ccc(-c3cc4cccc(Cl)c4o3)[nH]2)c(F)c1	95
COc1cc(C(=O)O)ccc1-c1ccc(-c2cc3cccc(Cl)c3o2)[nH]1	170
O=C(O)c1ccc(-c2ccc(-c3cc4c(Cl)ccc(Cl)c4o3)[nH]2)c(F)c1	64
O=C(O)c1ccc(-c2ccc(-c3cc4cccc(Cl)c4o3)[nH]2)c(Br)c1	31
Cc1ccc(C)c2oc(-c3ccc(-c4ccc(C(=O)O)cc4Cl)[nH]3)cc12	23
COc1cc(C(=O)O)ccc1-c1ccc(-c2cc3c(C)ccc(C)c3o2)[nH]1	47
CC1=C(/C=C/C(C)=C/C=C/C(C)=C/C(=O)O)C(C)(C)CCC1 [TRETINOIN]	1

Assay: Compound was evaluated for its inhibition of LPS-induced mouse B-lymphocyte proliferation
Assay type: functional

SMILES	pIC50
Cc1cc(C)c2oc(-c3ccc(-c4ccc(C(=O)O)cc4)[nH]3)cc2c1C	8.66
